Data as given in paper PMC11673057, “Unlocking Testosterone Production by Biotransformation: Engineering a Fungal Model of Aspergillus nidulans Strain Deficient in Steroid 11α-Hydroxylase Activity and Expressing 17β-Hydroxysteroid Dehydrogenase Enzyme as Proof of Concept” (Biomolecules, 2024).

Target: CYP68L1 (hydAN), steroid 11α-hydroxylase (Aspergillus nidulans, UniProt A0A6J3WXY1)
Assay: whole-cell fermentation of knockout strain expressing enzyme, HPLC
Assay type: cell-based
Details: 32 °C, 72 h; 11alpha-hydroxylation

Chain of CYP68L1 (hydAN), steroid 11α-hydroxylase (A0A6J3WXY1 entry or part of it): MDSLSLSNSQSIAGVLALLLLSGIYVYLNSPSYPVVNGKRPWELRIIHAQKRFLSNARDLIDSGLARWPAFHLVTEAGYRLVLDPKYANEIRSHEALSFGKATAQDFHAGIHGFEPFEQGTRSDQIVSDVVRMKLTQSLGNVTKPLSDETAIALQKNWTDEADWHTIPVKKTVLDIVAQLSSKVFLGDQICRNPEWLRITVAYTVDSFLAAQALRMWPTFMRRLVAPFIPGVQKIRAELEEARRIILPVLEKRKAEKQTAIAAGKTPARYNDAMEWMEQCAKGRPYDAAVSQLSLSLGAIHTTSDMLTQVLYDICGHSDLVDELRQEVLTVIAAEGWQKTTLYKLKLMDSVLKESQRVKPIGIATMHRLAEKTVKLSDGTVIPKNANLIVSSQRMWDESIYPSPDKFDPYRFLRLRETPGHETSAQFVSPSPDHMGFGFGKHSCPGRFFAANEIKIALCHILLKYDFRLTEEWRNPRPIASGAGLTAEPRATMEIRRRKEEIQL

C[C@]12CCC(=O)C=C1CC[C@@H]1[C@@H]2CC[C@]2(C)C(=O)CC[C@@H]12 [AD, androstenedione]
whole-cell fermentation of knockout strain expressing enzyme, HPLC: Hydroxylase activity was restored by expressing the hydAN gene encoding this CYP450 in the KOhydAN strain
